Here are results for 16 compounds from ChEMBL document CHEMBL4184232, “Novel (S)-1,3,4,12a-tetrahydropyrazino[2,1-c][1,4]benzodiazepine-6,12(2H,11H)-dione derivatives: Selective inhibition of MV-4-11 biphenotypic B myelomonocytic leukemia cells' growth is accompanied by reactive oxygen species overproduction and apoptosis” (Bioorg Med Chem Lett, 2018).

One assay has as its system A2780. The assay is described as follows: Antiproliferative activity against human A2780 cells incubated for 72 hrs by SRB assay. The format is functional, cell-based. Conditions: A2780, 72 h. (The SRB assay estimates cell density from bound dye.)
For assay [1], the system named is UMUC3. Description: Induction of cell cycle arrest in human UM-UC-3 cells assessed as accumulation at G2/M phase at 5 to 100 uM incubated for 24 hrs by propidium iodide staining based flow cytometry. The format is functional. On the technique in general: A flow cytometer gives signals particle by particle.
Assay [2] has as its system MV4-11. The assay is described as follows: Induction of apoptosis in human MV4-11 cells at 5 to 100 uM incubated for 24 hrs by FITC-Annexin V staining based flow cytometry. It is filed as functional, cell-based.
Another assay relates to MDA-MB-231. Description: Antiproliferative activity against human MDA-MB-231 cells incubated for 72 hrs by SRB assay. It is filed as functional, cell-based. Conditions: MDA-MB-231, 72 h.
The test system of assay [3] is MV4-11. The assay is described as follows: Antiproliferative activity against human MV4-11 cells incubated for 72 hrs by SRB assay. It is filed as functional, cell-based. Conditions: MV4-11, 72 h.
A further assay relates to A549. The assay is described as follows: Antiproliferative activity against human A549 cells incubated for 72 hrs by SRB assay. It is filed as functional, cell-based. Conditions: A549, 72 h.
Assay [4] relates to UMUC3. Description: Induction of oxidative stress in human UM-UC-3 cells assessed as increase in ROS production at 5 to 100 uM incubated for 6 hrs by DCF-DA and propidium iodide dye based flow cytometry. The format is functional, cell-based.
Another assay relates to MCF7. The assay is described as follows: Antiproliferative activity against human MCF7 cells incubated for 72 hrs by SRB assay. The format is functional, cell-based. Conditions: MCF7, 72 h.
The test system of assay [5] is MV4-11. Description: Induction of cell cycle arrest in human MV4-11 cells assessed as reduction in accumulation at G2/M phase at 100 uM incubated for 24 hrs by propidium iodide staining based flow cytometry. It is filed as functional.
In assay [6] the test system is UMUC3. Description: Induction of cell cycle arrest in human UM-UC-3 cells assessed as accumulation at S phase at 5 to 100 uM incubated for 24 hrs by propidium iodide staining based flow cytometry. The format is functional.
The subject of assay [7] is MV4-11. The assay is described as follows: Induction of cell cycle arrest in human MV4-11 cells assessed as increase in accumulation at G0/G1 phase at 100 uM incubated for 24 hrs by propidium iodide staining based flow cytometry. It is filed as functional.
Assay [8] concerns MV4-11. The assay is described as follows: Induction of cell cycle arrest in human MV4-11 cells assessed as increase in accumulation at subG1 phase at 100 uM incubated for 24 hrs by propidium iodide staining based flow cytometry. It is filed as functional.
The subject of assay [9] is UMUC3. Description: Induction of cell cycle arrest in human UM-UC-3 cells assessed as accumulation at G0/G1 phase at 5 to 100 uM incubated for 24 hrs by propidium iodide staining based flow cytometry. The format is functional.
The next assay has as its system LoVo. Description: Antiproliferative activity against human LoVo cells incubated for 72 hrs by SRB assay. It is filed as functional, cell-based.
In the next assay the test system is BALB/3T3. The assay is described as follows: Antiproliferative activity against mouse BALB/3T3 cells incubated for 72 hrs by SRB assay. It is filed as cell-based. Conditions: BALB/3T3, 72 h.
Assay [10] concerns UMUC3. The assay is described as follows: Induction of apoptosis in human UM-UC-3 cells assessed as increase in caspase-3/7 activity at 5 to 100 uM using Ac-DEVD-ACC substrate incubated for 24 hrs by fluorescence based assay. The format is functional, cell-based.
Assay [11] concerns MV4-11. The assay is described as follows: Induction of oxidative stress in human MV4-11 cells assessed as increase in ROS production at 5 to 100 uM incubated for 6 hrs by DCF-DA and propidium iodide dye based flow cytometry. It is filed as functional, cell-based.
The next assay deals with HT-29. Description: Antiproliferative activity against human HT-29 cells incubated for 72 hrs by SRB assay. The format is functional, cell-based. Conditions: HT-29, 72 h.
For assay [12], the system named is UMUC3. Description: Antiproliferative activity against human UM-UC-3 cells incubated for 72 hrs by SRB assay. Conditions: UMUC3, 72 h. The format is functional, cell-based.
For assay [13], the system named is UMUC3. The assay is described as follows: Induction of apoptosis in human UM-UC-3 cells at 5 to 100 uM incubated for 24 hrs by FITC-Annexin V staining based flow cytometry. The format is functional, cell-based.
The subject of assay [14] is MV4-11. The assay is described as follows: Induction of apoptosis in human MV4-11 cells assessed as increase in caspase-3/7 activity using Ac-DEVD-ACC substrate incubated for 24 hrs by fluorescence based assay. It is filed as functional, cell-based.
In assay [15] the test system is MV4-11. The assay is described as follows: Induction of cell cycle arrest in human MV4-11 cells assessed as reduction in accumulation at S phase at 100 uM incubated for 24 hrs by propidium iodide staining based flow cytometry. It is filed as functional.
A short description of assay [16]: Ratio of induction of apoptosis in human UM-UC-3 cells assessed as increase in caspase-3/7 activity at 100 uM to induction of apoptosis in human MV4-11 cells assessed as increase in caspase-3/7 activity at 100 uM. It is filed as functional.
In assay [17] the test system is UMUC3. Description: Induction of apoptosis in human UM-UC-3 cells assessed as increase in caspase-3/7 activity at 100 uM using Ac-DEVD-ACC substrate incubated for 24 hrs by fluorescence based assay. It is filed as functional, cell-based.
Another assay relates to Calf thymus DNA. Description: Binding affinity to calf thymus DNA assessed as increase in melting temperature incubated for 18 hrs by thermal denaturation study. The format is nucleic-acid assay. Conditions: Bos taurus.
In another assay the test system is P388. Description: Cytotoxicity against mouse P388 cells. The format is functional.

Activity calls are given as the source filed them. No cut-off for these calls is given here.

What is called IC50 is the concentration needed to halve the response being measured. Read a high IC50 as lower potency. Turning to `O=C(c1ccc(-c2ccccc2)cc1)N1CCN2C(=O)c3ccccc3N(Cc3ccccc3)C(=O)[C@@H]2C1`, the IC50 in the assay on A2780 is 62.8 µM; in the assay on MDA-MB-231, 41 µM; in the assay on MV4-11 [3], 10.8 µM; with A549 it was 106 µM; with MCF7, 35.8 µM; in the assay on LoVo, 11 µM. Further, the results for the IC50 in the assay on BALB/3T3, in the assay with HT-29 and in the assay with UMUC3 [12] were 136 µM, 144 µM and 136 µM, respectively. The outcome with UMUC3 [1], in the assay with UMUC3 [6], with UMUC3 [9], in the assay with UMUC3 [10] and with UMUC3 [13] was inactive. The result with MV4-11 [2], in the assay with MV4-11 [5], in the assay on MV4-11 [7], with MV4-11 [8] and in the assay with MV4-11 [15] was Active. Besides, the Activity result in the assay with UMUC3 [4], in the assay with MV4-11 [11] and in the assay with MV4-11 [14] was “Dose-dependent effect” in each case.

In the case of `O=C1Nc2ccccc2C(=O)N2CCN(C(=O)c3ccc(-c4ccccc4)cc3)C[C@H]12`, the IC50 was determined as 39.6 µM in the assay on MV4-11 [3] and 19.6 µM in the assay with UMUC3 [12].

`O=C1Nc2ccccc2C(=O)N2CCN(C(=O)c3ccc(Cl)cc3)C[C@H]12`: the results for the IC50 in the assay on MV4-11 [3] and with UMUC3 [12] were 36.7 µM and 22.3 µM, respectively.

On to `O=C(O)CN1C(=O)[C@@H]2CN(C(=O)c3ccc(-c4ccccc4)cc3)CCN2C(=O)c2ccccc21`, for which the IC50 was 19.6 µM with A2780; 7.8 µM with MDA-MB-231; 7.6 µM in the assay on MV4-11 [3]; 3.2 µM in the assay on A549; 7.6 µM with MCF7; 27.6 µM in the assay on LoVo. Besides, the half-maximal inhibitory concentration (IC50) in the assay with BALB/3T3 came to 15 µM; in the assay on HT-29, 17.8 µM; in the assay with UMUC3 [12], 3 µM.

Consider `O=C1Nc2ccccc2C(=O)N2CCN(C(=O)c3ccccc3)C[C@@H]12`, for which the values for the IC50 with MV4-11 [3] and with UMUC3 [12] were 27.1 µM and 10.5 µM, respectively.

Regarding `O=C(CN1C(=O)[C@@H]2CN(C(=O)c3ccc(-c4ccccc4)cc3)CCN2C(=O)c2ccccc21)OCc1ccccc1`, the IC50 with A2780 came to 28 µM; in the assay with MDA-MB-231 it was 30.3 µM; in the assay on MV4-11 [3], 44.2 µM; in the assay on A549 it was 34.1 µM; with MCF7, 147 µM; in the assay with LoVo, 23.1 µM. Besides, the IC50 with BALB/3T3 was 31 µM; in the assay with HT-29 it was 40.1 µM; with UMUC3 [12], 96.8 µM.

For the compound `O=C1Nc2ccccc2C(=O)N2CCN(C(=O)c3ccccc3)C[C@H]12`, the 50% inhibitory concentration (IC50) in the assay on MV4-11 [3] stood at 28.8 µM; in the assay with UMUC3 [12], 24.6 µM.

In the case of `O=C1Nc2ccc(Cl)cc2C(=O)N2CCN(C(=O)c3ccc(-c4ccccc4)cc3)C[C@@H]12`, the IC50 turned out to be 29.7 µM in the assay on A2780; 85.8 µM in the assay on MDA-MB-231; 40.7 µM with MV4-11 [3]; 51 µM in the assay on A549; 50.9 µM in the assay with MCF7; 28.9 µM in the assay with LoVo. Besides, the results for the IC50 in the assay on BALB/3T3, with HT-29 and with UMUC3 [12] were 105 µM, 46.4 µM and 94.4 µM, respectively.

Take `O=C1Nc2ccccc2C(=O)N2CCN(C(=O)c3ccc(Cl)cc3)C[C@@H]12`: the concentration for half-maximal inhibition (IC50) in the assay with MV4-11 [3] came to 32.3 µM; in the assay with UMUC3 [12], 18.2 µM.

Take `O=C1Nc2ccccc2C(=O)N2CCN(C(=O)c3ccccc3I)C[C@H]12`: the IC50 in the assay with MV4-11 [3] was determined as 39.8 µM; with UMUC3 [12], 13.3 µM.

For the compound `O=C1Nc2ccccc2C(=O)N2CCN(C(=O)c3ccc(-c4ccccc4)cc3)C[C@@H]12`, the 50% inhibitory concentration (IC50) turned out to be 35.8 µM with A2780; 141 µM in the assay with MDA-MB-231; 17.5 µM in the assay on MV4-11 [3]; 96.1 µM in the assay with A549; 47.3 µM with MCF7; 55 µM with LoVo. For the same compound, the figures for the 50% inhibitory concentration (IC50) with BALB/3T3, in the assay with HT-29 and with UMUC3 [12] were 79.6 µM, 154 µM and 61.5 µM, respectively. In addition, the result in the assay with UMUC3 [1], in the assay with UMUC3 [6] and in the assay on UMUC3 [9] was inactive. The Ratio in assay [16] is greater than 2. Besides, the outcome in the assay with UMUC3 [4], with MV4-11 [5], in the assay on MV4-11 [7], in the assay on MV4-11 [8], with UMUC3 [17] and in the assay on MV4-11 [11] was Active. Moreover, in the assay with MV4-11 [15], the result was Active. Moreover, the Activity result in the assay on MV4-11 [14] was “Dose-dependent effect”.

Turning to `O=C1Nc2ccccc2C(=O)N2CCN(C(=O)c3ccccc3I)C[C@@H]12`, the concentration for half-maximal inhibition (IC50) in the assay with MV4-11 [3] is 44 µM; in the assay on UMUC3 [12] it was 31.1 µM.

In the case of `CN1C(=O)[C@@H]2CN(C(=O)c3ccc(-c4ccccc4)cc3)CCN2C(=O)c2ccccc21`, the concentration for half-maximal inhibition (IC50) in the assay on A2780 came to 64.5 µM; with MDA-MB-231, 134 µM; with MV4-11 [3], 63.1 µM; with A549, 92 µM; with MCF7, 77.5 µM; in the assay with LoVo, 58.3 µM. The half-maximal inhibitory concentration (IC50) with BALB/3T3 came out at 37 µM; with HT-29, 94.2 µM; in the assay with UMUC3 [12] it was 103 µM.

Regarding `COc1cc2c(cc1O)NC(=O)[C@@H]1C[C@@H](O)CN1C2=O`, in the assay with Calf thymus DNA, the deltaTm was 3.3 K.

Turning to `O=C1Nc2ccc(Br)cc2C(=O)N2CCN(C(=O)c3ccc(-c4ccccc4)cc3)C[C@@H]12`, the IC50 in the assay with A2780 was determined as 28.2 µM; in the assay on MDA-MB-231, 113 µM; with MV4-11 [3], 8.7 µM; in the assay on A549, 48.1 µM; in the assay on MCF7, 57 µM; in the assay with LoVo, 22.1 µM. Further, the half-maximal inhibitory concentration (IC50) in the assay with BALB/3T3 was determined as 121 µM; in the assay with HT-29, 17.9 µM; in the assay with UMUC3 [12] it was 119 µM.

The term GI50 denotes the concentration that inhibits growth by half. Read a low GI50 as more potent growth inhibition. In the assay with P388, `O=C1Nc2ccccc2C(=O)N2C=C(c3ccc(Br)cc3)C[C@@H]12` registered a GI50 of 0.51 µM.
